# Test results: paper PMC5267425, “Identification of small molecule modulators of HIV-1 Tat and Rev protein accumulation” (Retrovirology, 2017)
# Test system: cellular gene expression in HeLa rtTA HIV∆Mls cells
compound,measurement,value
"Cc1cc(NCc2cccnc2)n2ncc(-c3ccc(Cl)cc3)c2n1 [Compound 791, 3-(4-chlorophenyl)-5-methyl-N-(3-pyridinylmethyl)pyrazolo[1,5-a]pyrimidin-7-amine]",DCAF6 expression fold change,0.581
same,DCAF17 Mean fold change,1.433
same,DCI expression fold change,1.321
same,DCLRE1A expression fold change,1.408
same,DCXR expression fold change,1.050
same,DDB2 expression fold change,1.399
same,DDR1 expression fold change,0.690
same,DDX10 expression fold change,1.177
same,DDX31 Mean fold change,1.434
same,DDX50 expression fold change,1.253
same,DENND4B expression fold change,1.243
same,DET1 expression fold change,1.366
same,DGCR2 expression fold change,0.881
same,DGKQ expression fold change,1.343
same,DHX35 expression fold change,1.203
same,DLG4 expression fold change,1.263
same,DMAP1 expression fold change,0.891
same,DNAH14 Mean fold change,1.678
same,DNAH17 Mean fold change,1.839
same,DNAJA3 Mean fold change,1.796
same,DNAJB14 expression fold change,1.264
same,DNASE2 expression fold change,1.378
same,DNMT3L expression fold change,0.498
same,DOCK1 expression fold change,0.758
same,DOCK8 expression fold change,0.595
same,DPH5 Mean fold change,1.479
same,DPM2 expression fold change,1.136
same,DPYSL2 Mean fold change,1.729
same,DSE expression fold change,0.858
same,DUS4L Mean fold change,1.822
same,DUSP1 expression fold change,0.730
same,DUSP8 expression fold change,0.576
same,DYM expression fold change,1.260
same,DYNC1I2 expression fold change,0.857
same,DYNLT1 expression fold change,1.171
same,DYRK2 expression fold change,1.206
same,EARS2 expression fold change,1.134
same,ECT2 expression fold change,0.716
same,EDA2R Mean fold change,1.924
same,EDEM1 expression fold change,1.273
same,EFCAB2 expression fold change,1.159
same,EIF1 Mean fold change,1.516
same,EIF2S2 Mean fold change,1.734
same,EIF2S3 expression fold change,1.243
same,EIF4EBP1 Mean fold change,2.239
same,ELMO2 expression fold change,1.211
same,ELP3 expression fold change,1.135
same,EMP2 expression fold change,0.740
same,ENOPH1 Mean fold change,1.427
same,EPB41L2 expression fold change,0.862
same,EPB41L4A expression fold change,0.788
same,EPB41 Mean fold change,1.417
same,EPM2AIP1 expression fold change,1.093
same,EPRS expression fold change,1.271
same,ERCC2 expression fold change,0.790
same,ERGIC1 expression fold change,1.185
same,ERICH1 expression fold change,0.941
same,ERMAP Mean fold change,1.499
same,ERRFI1 Mean fold change,1.452
same,ESAM expression fold change,0.673
same,ESCO1 expression fold change,1.256
same,ESF1 expression fold change,1.072
same,ESRRA expression fold change,1.275
same,ESYT2 expression fold change,0.824
same,ETV4 Mean fold change,4.291
same,ETV6 expression fold change,1.253
same,F2R expression fold change,0.551
same,FAIM3 expression fold change,1.351
same,FAM13B expression fold change,0.771
same,FAM27E2 Mean fold change,2.360
same,FAM83D expression fold change,0.622
same,FAM83G expression fold change,1.328
same,FAM86A Mean fold change,1.567
same,FAM86B1 Mean fold change,2.493
same,FAM86B2 Mean fold change,2.843
same,FAM86C Mean fold change,1.599
same,FAM102A expression fold change,1.402
same,FAM107B expression fold change,1.234
same,FAM114A1 expression fold change,0.853
same,FAM119B expression fold change,1.218
same,FAM127A expression fold change,0.756
same,FAM133B expression fold change,1.056
same,FAM176B expression fold change,1.310
same,FAM179B expression fold change,1.253
same,FAM192A expression fold change,1.096
same,FAM195B expression fold change,0.859
same,FAM199X expression fold change,1.145
same,FAR1 expression fold change,1.245
same,FARP1 expression fold change,0.824
same,FASTKD2 expression fold change,1.173
same,FBXL2 expression fold change,0.756
same,FBXO22 expression fold change,1.399
same,FBXO28 expression fold change,1.101
same,FBXO45 Mean fold change,1.434
same,FBXW4 expression fold change,1.381
same,FBXW11 expression fold change,1.080
same,FDFT1 expression fold change,0.649
same,FECH expression fold change,0.957
same,FEM1C expression fold change,1.387
same,FEZ2 expression fold change,1.355
same,FGFR3 expression fold change,0.612
same,FLCN expression fold change,1.383
same,FLII expression fold change,0.919
same,FLYWCH1 expression fold change,1.367
same,FOSL2 expression fold change,1.375
same,FOXF1 expression fold change,1.318
same,FOXJ2 expression fold change,1.277
same,FOXJ3 expression fold change,1.187
same,FOXN2 expression fold change,1.082
same,FRAT1 expression fold change,0.900
same,FSTL1 expression fold change,0.717
same,FUBP1 expression fold change,0.781
same,FXYD5 expression fold change,1.215
same,FZR1 expression fold change,0.784
same,GABARAPL2 expression fold change,0.887
same,GADD45A Mean fold change,2.491
same,GALNT2 expression fold change,0.621
same,GATA5 expression fold change,1.360
same,GATSL1 expression fold change,0.637
same,GBA2 expression fold change,1.203
same,GCC1 Mean fold change,1.971
same,GDF15 Mean fold change,7.775
same,GGA3 expression fold change,1.172
same,GJD3 expression fold change,1.295
same,GLCCI1 expression fold change,0.781
same,GLI2 expression fold change,0.589
same,GNA13 expression fold change,1.223
same,GNG10 expression fold change,0.817
same,GNL1 expression fold change,1.145
same,GOLGA5 expression fold change,1.153
same,GOLGA9P Mean fold change,1.884
same,GORAB expression fold change,1.233
same,GORASP1 expression fold change,0.859
same,GOSR1 expression fold change,1.352
same,GPC5 expression fold change,1.250
same,GPCPD1 Mean fold change,2.287
same,GPD1L expression fold change,1.252
same,GPR176 expression fold change,0.771
same,GPT2 Mean fold change,2.731
same,GRAMD1C expression fold change,1.186
same,GRB10 Mean fold change,1.714
same,GRINL1A Mean fold change,1.542
same,GRPEL2 Mean fold change,1.903
same,GTF2H3 expression fold change,1.322
same,GTF3C1 expression fold change,0.813
same,H3F3A expression fold change,0.746
same,HACL1 expression fold change,0.803
same,HADHA Mean fold change,1.441
same,HADHB Mean fold change,1.600
same,HAUS3 expression fold change,1.330
same,HAUS4 expression fold change,1.250
same,HAUS6 Mean fold change,1.910
same,HAX1 Mean fold change,1.624
same,HDAC1 expression fold change,0.825
same,HDHD2 expression fold change,1.223
same,HEBP1 expression fold change,1.199
same,HECTD1 expression fold change,1.231
same,HEG1 expression fold change,0.638
same,HIF1A expression fold change,1.219
same,HINT3 expression fold change,1.199
same,HIPK1 expression fold change,1.092
same,HIST1H3B expression fold change,0.670
same,HJURP expression fold change,0.874
same,HMGB3 expression fold change,0.753
same,HMGN3 expression fold change,0.687
same,HNRNPH2 expression fold change,0.704
same,HPS3 expression fold change,1.235
same,HRSP12 expression fold change,1.297
same,HSD17B1 expression fold change,1.238
same,HSPA9 Mean fold change,2.175
same,HSPB6 Mean fold change,2.845
same,HSPB8 expression fold change,0.812
same,IBTK expression fold change,1.153
same,ICAM1 Mean fold change,1.829
same,ICK expression fold change,0.776
same,ID3 expression fold change,0.580
same,IDH2 expression fold change,0.637
same,IDI1 expression fold change,0.495
same,IFNGR1 expression fold change,1.224
same,IFRD1 Mean fold change,2.095
same,IKBIP expression fold change,0.658
same,IMMT expression fold change,1.075
same,IMPA2 Mean fold change,1.561
same,INCENP expression fold change,0.617
same,INO80C expression fold change,0.723
same,INPP1 expression fold change,1.347
same,IPO13 expression fold change,1.247
same,IQCB1 expression fold change,1.350
same,ISCU Mean fold change,1.477
same,ITGA5 expression fold change,1.145
same,ITPKC expression fold change,1.186
same,IVNS1ABP expression fold change,1.200
same,JTB expression fold change,1.203
same,JUB expression fold change,0.585
same,KANK2 expression fold change,0.798
same,KCNJ2 Mean fold change,1.873
same,KCTD1 expression fold change,1.252
same,KCTD13 expression fold change,1.373
same,KCTD15 Mean fold change,1.965
same,KCTD20 expression fold change,1.124
same,KHDRBS1 expression fold change,0.750
same,KHSRP expression fold change,0.864
same,KIAA0232 expression fold change,1.232
same,KIAA0562 expression fold change,1.119
same,KIAA0649 expression fold change,1.279
same,KIAA0753 expression fold change,1.283
same,KIAA0895 expression fold change,1.129
same,KIAA1430 expression fold change,1.140
same,KIAA1826 expression fold change,1.191
same,KIAA2013 expression fold change,0.927
same,KIF3B expression fold change,0.839
same,KIF5C expression fold change,0.782
same,KIF11 expression fold change,0.660
same,KIF18B expression fold change,0.771
same,KIF20B expression fold change,0.622
same,KIFC1 expression fold change,0.753
same,KITLG expression fold change,0.707
same,KLF9 expression fold change,0.665
same,KLF11 Mean fold change,1.487
same,KLHDC3 expression fold change,0.728
same,KLHL35 Mean fold change,1.651
same,KPNA2 expression fold change,0.620
same,KRR1 expression fold change,1.251
same,LACE1 Mean fold change,1.553
same,LAPTM4B expression fold change,0.781
same,LARP6 Mean fold change,3.094
same,LARS expression fold change,1.394
same,LASS5 expression fold change,0.895
same,LGALS9 Mean fold change,1.949
same,LGTN expression fold change,1.255
same,LHPP Mean fold change,1.532
same,LIG3 expression fold change,1.068
same,LIN7B expression fold change,1.185
same,LMO7 expression fold change,0.663
same,LONP1 Mean fold change,2.312
same,LRP5L expression fold change,1.303
same,LRPPRC expression fold change,1.312
same,LRRC8D Mean fold change,1.472
same,LRRC16A expression fold change,0.608
same,LRRC37A3 Mean fold change,1.746
same,LRRC37B Mean fold change,1.443
same,LRSAM1 expression fold change,1.153
same,LYRM2 expression fold change,1.176
same,LYSMD1 expression fold change,1.216
same,LZTR1 expression fold change,0.877
same,MAGT1 expression fold change,0.903
same,MAK16 Mean fold change,1.459
same,MAML2 expression fold change,0.717
same,MANF expression fold change,0.731
same,MAP1B Mean fold change,3.550
same,MAP3K12 expression fold change,1.348
same,MAP3K14 expression fold change,0.532
same,MAP4K4 expression fold change,0.822
